In patent publication US7423060B2, “Thiophene hydroxamic acid derivatives and their use as HDAC inhibitors” (Hoffman-La Roche Inc., priority 2004, dated 2008):

Test system: HT-29 cells
Test: MTT assay on HT-29 human colon carcinoma cell line
Format: cell-based
Conditions: MTT assay after 5 days, compounds 30 μM to 1.5 nM, read-out: IC90 HT29
Protocol: To show the activity of the compounds according to this invention, their effects on a human colon carcinoma cell line was evaluated using a standard MTT-assay. MTT (3-(4,5-dimethylthiazol-2-yl)-2,5-diphenyl tetrazolium bromide) is widely used for the quantitative determination of cytotoxic effects or in vitro chemosensitivity of tumor cells. The assay is based on the cleavage of the yellow tetrazolium salt (MTT) to purple formazan crystals by metabolic active cells. For details, see Rubinstein, L. V., et al., J. Natl. Cancer Inst. 82 (1990) 1113-1118.
We proceeded as follows: HT-29 cells (human colon carcinoma cell line, ATCC-No. HTB-38) were cultivated in RPMI 1640 medium with GlutaMAX™ I (Invitrogen, Cat-No. 61870-010), 2.5% fetal calf serum (FCS, Sigma Cat-No. F4135 (FBS)), 2 mM glutamine, 100 units/ml penicillin, 100 μg/ml streptomycin (=Pen/Strep from Invitrogen Cat. No. 15140). For the assay the cells were seeded in 384 well plates, 900 cells per well, in the same medium. At the next day, the compounds (dissolved 10 mM in DMSO) were added in various concentrations ranging from 30 μM to 1.5 nM. After 5 days, the MTT assay was done mainly according to the instructions of the manufacturer (Cell proliferation kit I, MTT, from Roche Molecular Biochemicals). […] After careful mixing, the plates were measured in Victor 2 (scanning multiweil spectrophotometer, Wallac) at 550 nm. […]

CC(NC(=O)c1ccc(C(=O)NO)s1)c1ccc(OCc2ccc(OC(F)(F)F)cc2)cc1 (stereo not shown) [Example 1-1, Thiophene-2,5-dicarboxylic acid 2-hydroxyamide 5-({1-[4-(4-trifluoromethoxy-benzyloxy)-phenyl]-ethyl}-amide)]
IC90: 690 nM
